# From ChEMBL document CHEMBL3507680, “University of Dundee, Gates Library screen for HepG2 cell viability”
# Test: Human HepG2 cell viability assay in 384 well format
# Type: toxicity, cell-based
# Parameters: dose 125 nL, time 70.5 hour; cytotoxicity at 70.5 h: concentration not given beside the values
# Details: HepG2 cells, read-out: Inhibition
row,Compound,cytotoxicity at 70.5 h
1,Cc1noc([C@H]2COC[C@H]3CN(C(=O)Cc4cccs4)C[C@H]32)n1,-12.6%
2,c1nc(N2CCOCC2)nc2c1COCC21CCN(CC2CC2)C1 (stereo not drawn),-6.25%
3,CCn1nnc2c1C(COC)CN(C(=O)Cc1ccccn1)C2 (stereo not drawn),-15.3%
4,O=C(C[C@@H]1COC[C@H]2CN(Cc3ccncc3)C[C@@H]12)N1CCCC1,11.8%
5,CCC(CC)C(=O)N1CCc2nc(N3CCCC3)nc(C)c2CC1,-12.2%
6,Cc1nc(N2CCCC2)nc2c1CCN(C(=O)CC1CCCC1)CC2,-9.31%
7,Cc1nc(N2CCOCC2)nc2c1CCN(C(=O)C1CC1)CC2,-13.2%
8,Cn1cc(CN2CC[C@H]3OCC[C@@H](C(=O)NC4CCCC4)[C@@H]3C2)cn1,-17.5%
9,Cc1nc(N2CCOCC2)nc2c1CCN(C(=O)C1CCCCC1)CC2,0.0722%
10,Cc1nc(CN2C(=O)CC[C@@H]3[C@H]2CCN3C(=O)C2CCCO2)cs1 (stereo partly drawn),-8.01%
11,Cc1nc(N2CCCC2)nc2c1CCN(C(=O)C(C)C)CC2,-15.8%
12,Cc1nc(N2CCCC2)nc2c1CCN(C(=O)N(C)C)CC2,-16.7%
13,CC(C)CN1C[C@H]2CCN(C(=O)NC3CCCC3)CC[C@H]2S1(=O)=O,-9.06%
14,COCCN1CC[C@H]2OCC[C@@H](C(=O)Nc3cccnc3)[C@@H]2C1,53%
15,CN1CC2(CCNCC2)COc2ccccc2S1(=O)=O,-2.93%
16,Cn1cc(CN2CC[C@]3(C[C@H](OCc4ccccn4)CO3)C2)cn1,-22.4%
17,CC(C)CNC(=O)[C@H]1C[C@@H]2CN(C(=O)Nc3ccc(F)cc3)C[C@H]1O2,-26.4%
18,CNc1ncc2c(n1)CN(c1cccc(OC)c1)C2=O,-13.9%
19,CNc1ncc2c(n1)CN(Cc1ccc(Cl)cc1)C2=O,-9.81%
20,CNc1ncc2c(n1)CN(CCc1ccccc1)C2=O,-12.7%
21,CCNc1ncc2c(n1)CN(c1ccc(OC(F)(F)F)cc1)C2=O,-15.6%
22,CCNc1ncc2c(n1)CN(c1ccc(Cl)cc1)C2=O,-14.1%
23,Cc1nn(C)c2cnn(Cc3ccc(C(=O)NCC4CC4)o3)c12,-10.2%

row,Compound,cytotoxicity at 70.5 h
1,CCn1nc(C)c2c1cnn2CCNS(=O)(=O)c1ccccc1,-6.47%
2,CCn1nc(C)c2c1cnn2CCNS(=O)(=O)c1cccs1,4.54%
3,Cc1cc(NC(=O)CCn2nc(C)c3ccccc32)n(C)n1,-1.96%
4,CCn1nc(C)c2ncnc(NCCN3CCOCC3)c21,-3.9%
5,CC(C)NC(=O)c1nnc2ccc(N3CCOCC3)cc2n1,-5.91%
6,CCN1C(=O)C(C)(C)c2cc(NC(=O)c3ccn(CC)n3)ccc21,-19.5%
7,CCn1nc(C)c(C(=O)Nc2ccc3c(c2)C(C)(C)C(=O)N3C)c1C,-0.0352%
8,CSc1cccc(NC(C)C(=O)Nc2nccs2)c1 (stereo not drawn),6.07%
9,Clc1cccc(Cl)c1CNCCOc1ccccn1,11.6%
10,CCn1nc(C)c2nc(C)nc(N(C)Cc3ccco3)c21,-21.8%
11,CCn1nc(C)c2nc(C)nc(NCCCn3cccn3)c21,-7.44%
12,CCCc1nc(NCCCOC)c2c(n1)c(C)nn2CC,18.7%
13,CCCc1nc(N2CCCCCC2)c2c(n1)c(C)nn2CC,-11.6%
14,CCCc1nc(N2CCSCC2)c2c(n1)c(C)nn2CC,-13.1%
15,Cc1nn(C)c2c(NCCCn3cccn3)nc(C3CC3)nc12,-5.95%
16,Cc1nn(C)c2c(N3CCSCC3)nc(C3CC3)nc12,-4.86%
17,CCn1nc(C)c2nc(C(C)C)nc(NCC(=O)N3CCOCC3)c21,5.24%
18,Cc1nn(C)c2c(N(C)Cc3ccco3)nc(C3CC3)nc12,15.5%
19,CCn1nc(C)c2nc(C(C)C)nc(NCCCn3cccn3)c21,-4.58%
20,CCn1nc(C)c2nc(C(C)C)nc(N3CCC(O)CC3)c21,-15.2%
21,CCn1nc(C)c2nc(C(C)C)nc(N3CCN(C)CC3)c21,29.8%
22,CCn1nc(C)c2nc(C(C)C)nc(N3CCCC3)c21,15.3%
23,CCn1nc(C)c2nc(C(C)C)nc(NC)c21,20.9%

row,Compound,cytotoxicity at 70.5 h
1,NCc1n[nH]c(-c2ccc(F)cc2)n1,-0.714%
2,CC(C)n1cc(S(=O)(=O)N2CCCCCC2)cn1,-2.52%
3,COCC(=O)NCCCn1ncc2c(C)cccc21,-5.2%
4,O=C(NCCCn1ccnc1)C1CCC(=O)N1Cc1cccs1 (stereo not drawn),-9.7%
5,CCOCCCNC(=O)c1cc(C)nc(N2CCCCC2)n1,-6.17%
6,COc1cccc(CNC(=O)c2cc(C)nc(N3CCCC3)n2)c1,17.7%
7,O=C(NCCCO)c1nnsc1-c1ccccc1,-0.82%
8,CCOCCCNC(=O)c1cc(OC)c2ccoc2c1,-1.75%
9,CCOc1cc(C(=O)N2CCCC2)cc2occc12,-8.39%
10,CCn1ccc(NS(=O)(=O)c2cccc(COC)c2)n1,8.56%
11,COCc1cccc(S(=O)(=O)NCc2cnn(C)c2C)c1,-9.83%
12,COCc1cccc(S(=O)(=O)N2CCSCC2)c1,14%
13,CCn1ccc(NS(=O)(=O)c2cccc(CSC)c2)n1,3.12%
14,CSCc1cccc(S(=O)(=O)NCCO)c1,0.997%
15,COCCCNS(=O)(=O)c1cccc(CSC)c1,-16.6%
16,CCn1ccc(NC(=O)CCc2c(C)noc2C)n1,-7.45%
17,CCn1cc(NC(=O)C2CCC(=O)N2Cc2ccc(C)o2)cn1 (stereo not drawn),-2.42%
18,O=C(O)CSc1nccc(-c2ccc3c(c2)OCO3)n1,-7.09%
19,Cc1nc(N2CCOCC2)ncc1-c1cc(O)nc(N2CCCC2)n1,-2.77%
20,Cc1ccccc1CNCc1cc(Cl)ccc1O,-11.5%
21,CCc1cc(=O)n(CC(=O)N2CCCCC2)c(-c2cccc(F)c2)n1,-9.52%
22,CCN(CC)C(=O)CSc1nc2cc(C)nc-2c(O)n1Cc1ccco1,-10.9%
23,CC(=O)N1CCN(C(=O)c2[nH]nnc2Nc2ccccc2F)CC1,8.05%

row,Compound,cytotoxicity at 70.5 h
1,c1cnc(-c2nn3c(CN4CCCCC4)nnc3s2)cn1,-6.5%
2,CCc1ccccc1N1CC(c2nnc(N)s2)CC1=O (stereo not drawn),-13.1%
3,Cc1cc(C(=O)NCc2c(C)nn(C)c2C)nc(N2CCOCC2)n1,-1.14%
4,c1ccc(-c2nn3c(CN4CCOCC4)nnc3s2)nc1,-3.21%
5,c1cnc(-c2nn3c(CN4CCOCC4)nnc3s2)cn1,-10.2%
6,CCN(CC)Cc1nnc2sc(C(C)Oc3ccccc3)nn12 (stereo not drawn),4.82%
7,Cc1ncc2c(n1)CCCC2NC(=O)c1ccc(Cn2cccn2)cc1 (stereo not drawn),-5.6%
8,O=C(Cc1ccsc1)N1CCC(c2noc(-c3cccnc3)n2)CC1,-2.37%
9,CCCN1C[C@H](NC(=O)c2ccccc2F)[C@@H](c2ccc(OC)cc2)C1,0.779%
10,NC(=O)C1CCN(C(=O)CCn2c(C(F)(F)F)cc3cccnc32)CC1,3.01%
11,O=C(c1ccc(O)nc1)N1Cc2ccccc2OC2(CCOCC2)C1,0.0352%
12,O=C(CCn1c(C(F)(F)F)cc2cccnc21)N1CCC(O)CC1,2.54%
13,O=C(c1cncnc1)N1Cc2ccccc2OC2(CCOCC2)C1,2.98%
14,Cn1nccc1C(=O)N1Cc2cc(Cl)ccc2OC2(CCOCC2)C1,2.41%
15,CCc1cc(C(=O)N2Cc3ccccc3OC3(CCOCC3)C2)on1,8.33%
16,C[C@H](NC(=O)C1CC1)c1nc2cc(-c3ccc(F)cc3)ncn2n1,2.87%
17,O=C(CN1CCCC1)N1CCCC(c2cc(=O)n3c(n2)CCCCC3)C1 (stereo not drawn),2.75%
18,Cc1cc2c(=O)n3c(nc2s1)CCN(Cc1c[nH]cn1)CC3,1%
19,c1ccc(-c2cc(CNCCCC3CCOC3)c3nnnn3c2)cc1 (stereo not drawn),5.9%
20,CC(C)OCCCN(Cc1ccncc1)Cc1cc(F)cc(F)c1,58.6%
21,O=C(NCc1cccs1)[C@@H]1CC[C@@H]2[C@@H](CCN2C2CCOCC2)O1,-14.8%
22,CC1c2ncc(COc3cccnc3)n2CCN1C(=O)C1=CCCCC1 (stereo not drawn),-14.2%
23,O=C(NCc1ccco1)[C@H]1CC[C@@H]2[C@@H](CCN2C2CCC2)O1,-15.1%

row,Compound,cytotoxicity at 70.5 h
1,COC1COC2(CCN(Cc3ccccc3C)CC2)C1 (stereo not drawn),-13.2%
2,Cc1cccc(CN2CCC3(CC2)CN(c2cnn(C)c2)C(=O)CO3)n1,41.4%
3,O=C1CC[C@H]2[C@H](CCN2C(=O)C2CCOC2)N1Cc1ccncc1 (stereo partly drawn),-20.6%
4,CCC1=N[C@@]2(CC[C@@H]3CN(CC4CC4)C[C@@H]32)C(=O)N1CC,-14%
5,Cn1cc(N2CC3(CCN(Cc4ccoc4)CC3)OCC2=O)cn1,-1.7%
6,COC[C@@H]1CCC[C@]12CN(Cc1ccco1)CCO2,-1.04%
7,CC1=N[C@@]2(CC[C@@H]3CN(CC(=O)N(C)C)C[C@@H]32)C(=O)N1CC1CC1,-2.19%
8,O=C1CC[C@H]2[C@H](CCN2C(=O)C2CCCO2)N1Cc1cccnc1 (stereo partly drawn),-6.99%
9,CN(C)CC(=O)N1CCc2sc(C(=O)NCC3CC3)cc21,-12.2%
10,CCCNC(=O)c1cc2c(s1)CCN2C(=O)CN(C)C,-14.4%
11,COC[C@@H]1CCC[C@@]12CN(Cc1ccc(C)s1)CCO2,48.9%
12,Cc1ncnc2c1CCN(C(=O)Cc1ccccn1)CC2,-12.9%
13,O[C@@H]1CCN(CC2CC2)[C@H]1Cc1ccccc1,-23%
14,CCc1ncnc2c1CCN(C(=O)c1ccccn1)CC2,-24.1%
15,O=C(c1ccoc1)N1CCOCC2(CCN(C3CCOCC3)C2)C1 (stereo not drawn),-2.14%
16,COCCN1CC[C@@H](OC)[C@@H]1Cc1ccccc1,15.6%
17,c1cc(CN2CCC3(CC2)COC(COCC2CC2)C3)ccn1 (stereo not drawn),-16.7%
18,CCc1ccc(CN2CCC3(CC2)CN(c2cnn(C)c2)C(=O)CO3)o1,-8.17%
19,O=C(Nc1cccnc1)[C@@H]1CCO[C@@H]2CCN(Cc3cccnc3)C[C@@H]21,-22.1%
20,CO[C@@H]1CCN(Cc2ccccn2)[C@@H]2CN(Cc3ccco3)C[C@@H]21,32.3%
21,COc1cc2c(cc1CN1CCn3c(CO)nnc3C1)CCC2,8.8%
